# Experimental data reported in the supplement of paper PMC4862054.
# Key:
# Assay in all cases: normalised response (% of control), CellTiter-Glo; higher = more viable cells (100 = DMSO, 0 = benzethonium chloride kill control)
# Conditions in all cases: incubation time: 72 h
# [1] = test system: MDA-MB-231
# Protocol: (§1)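 DSRT, 72 h incubation, CellTox Green / CellTiter-Glo readout. Signal is normalised to DMSO and benzethonium chloride controls. Value is the normalised response at the highest dose.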
# [2] = test system: CAL-85-1
# Protocol: as §1
# [3] = test system: CAL-51
# Protocol: as §1
# [4] = test system: BT-474
# Protocol: as §1
# [5] = test system: MCF-10A
# Protocol: as §1
# [6] = test system: HDQ-P1
# Protocol: as §1
# [7] = test system: HCC1599
# Protocol: as §1
# [8] = test system: CAL-148
# Protocol: as §1
# [9] = test system: MDA-MB-453
# Protocol: as §1
# [10] = test system: MDA-MB-468
# Protocol: as §1
# [11] = test system: DU-4475
# Protocol: as §1
# [12] = test system: CAL-120
# Protocol: as §1
# [13] = test system: MDA-MB-436
# Protocol: as §1
# [14] = test system: BT-549
# Protocol: as §1
# [15] = test system: SK-BR-3
# Protocol: as §1
# [16] = test system: HCC1143
# Protocol: as §1
# [17] = test system: HCC1937
# Protocol: as §1
# [18] = test system: MFM-223
# Protocol: as §1
# [19] = test system: Hs578T
# Protocol: as §1
# [20] = test system: MCF-10A; remark: listed apart in the source
# Method in brief: (§2)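 Breast cancer cell lines, seeded at 20 µl suspension per well, were incubated for 72 h in 384-well plates containing compound at 5 concentrations. These concentrations rose in 10-fold steps over a 10,000-fold range set for each compound. CellTox Green fluorescence (485/520 nm) was read, then CellTiter-Glo luminescence after 10 min at room temperature, and each plate was normalised to 0.1 % DMSO (100) and a positive kill control (0). Values are normalised signals, each at one concentration.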
# [21] = test system: HCC1599; remark: listed apart in the source
# Method in brief: as §2
# [22] = test system: MDA-MB-453; remark: listed apart in the source
# Method in brief: as §2
# [23] = test system: CAL-120; remark: listed apart in the source
# Method in brief: as §2
# [24] = test system: Hs578T; remark: listed apart in the source
# Method in brief: as §2
SMILES,normalised response [20],normalised response [21],normalised response [22],normalised response [23],normalised response [24],other results
COc1cc(Nc2c(C#N)cnc3cc(OCCCN4CCN(C)CC4)c(OC)cc23)c(Cl)cc1Cl [Bosutinib] (10000 nM),–,–,–,–,–,normalised response [1]: 0.86%; normalised response [2]: 0.33%; normalised response [3]: 25%; normalised response [4]: 2.86%; normalised response [5]: 1.72%; normalised response [6]: 9.28%; normalised response [7]: 13.5%; normalised response [8]: 33.3%; normalised response [9]: 6.11%; normalised response [10]: 1.43%; normalised response [11]: 70%; normalised response [12]: 43.4%; normalised response [13]: 5.63%; normalised response [14]: 15.6%; normalised response [15]: 1.81%; normalised response [16]: 46.6%; normalised response [17]: 5.6%; normalised response [18]: 41.2%; normalised response [19]: 48.5%
Cn1cc(C2=C(c3cn(C4CCN(Cc5ccccn5)CC4)c4ccccc34)C(=O)NC2=O)c2ccccc21 [Enzastaurin] (1000 nM),91.6%,95.8%,96.1%,103%,104%,–
Cn1cc(C2=C(c3cn(C4CCN(Cc5ccccn5)CC4)c4ccccc34)C(=O)NC2=O)c2ccccc21 [Enzastaurin] (10000 nM),–,–,–,–,–,normalised response [1]: 102%; normalised response [2]: 85.1%; normalised response [3]: 82.1%; normalised response [4]: 96%; normalised response [5]: 87.5%; normalised response [6]: 70.1%; normalised response [7]: 78.2%; normalised response [8]: 107%; normalised response [9]: 101%; normalised response [10]: 82.9%; normalised response [11]: 105%; normalised response [12]: 91.1%; normalised response [13]: 101%; normalised response [14]: 61.2%; normalised response [15]: 85.6%; normalised response [16]: 96.5%; normalised response [17]: 101%; normalised response [18]: 103%; normalised response [19]: 91%
CC(C)(C)NC(=O)[C@H]1CC[C@H]2[C@@H]3CC[C@H]4NC(=O)C=C[C@]4(C)[C@H]3CC[C@]12C [Finasteride] (1000 nM),104%,113%,103%,106%,96.6%,–
CC(C)(C)NC(=O)[C@H]1CC[C@H]2[C@@H]3CC[C@H]4NC(=O)C=C[C@]4(C)[C@H]3CC[C@]12C [Finasteride] (10000 nM),–,–,–,–,–,normalised response [1]: 102%; normalised response [2]: 96.5%; normalised response [3]: 91.7%; normalised response [4]: 96.5%; normalised response [5]: 110%; normalised response [6]: 95.7%; normalised response [7]: 97%; normalised response [8]: 105%; normalised response [9]: 93.4%; normalised response [10]: 102%; normalised response [11]: 103%; normalised response [12]: 99.7%; normalised response [13]: 108%; normalised response [14]: 91.7%; normalised response [15]: 94.4%; normalised response [16]: 96.6%; normalised response [17]: 97.8%; normalised response [18]: 93.4%; normalised response [19]: 99.9%
Nc1ccn([C@@H]2O[C@H](CO)[C@@H](O)C2(F)F)c(=O)n1 [Gemcitabine] (100 nM),66.7%,39%,67.7%,78.8%,70%,–
CC(C)C[C@H](NC(=O)[C@@H](COC(C)(C)C)NC(=O)[C@H](Cc1ccc(O)cc1)NC(=O)[C@H](CO)NC(=O)[C@H](Cc1c[nH]c2ccccc12)NC(=O)[C@H](Cc1cnc[nH]1)NC(=O)[C@@H]1CCC(=O)N1)C(=O)N[C@@H](CCCNC(=N)N)C(=O)N1CCC[C@H]1C(=O)NNC(N)=O [Goserelin] (1000 nM),96.5%,106%,106%,106%,99.4%,–
CC(=O)[C@]1(O)Cc2c(O)c3c(c(O)c2[C@@H](O[C@H]2C[C@H](N)[C@H](O)[C@H](C)O2)C1)C(=O)c1ccccc1C3=O [Idarubicin] (100 nM),98.2%,123%,140%,99.7%,82.5%,–
C/C(=C\c1csc(C)n1)[C@@H]1C[C@@H]2O[C@]2(C)CCC[C@H](C)[C@H](O)[C@@H](C)C(=O)C(C)(C)[C@@H](O)CC(=O)N1 [Ixabepilone] (100 nM),110%,103%,109%,95.8%,104%,–
C=CCn1c(=O)c2cnc(Nc3ccc(N4CCN(C)CC4)cc3)nc2n1-c1cccc(C(C)(C)O)n1 [MK1775] (1000 nM),47.6%,7.3%,50.1%,47.3%,30%,–
CO[C@@H]1[C@H](N(C)C(=O)c2ccccc2)C[C@H]2O[C@]1(C)n1c3ccccc3c3c4c(c5c6ccccc6n2c5c31)C(=O)NC4 [Midostaurin] (1000 nM),27.8%,94.5%,120%,54%,26.1%,–
CO[C@@]12[C@H](COC(N)=O)C3=C(C(=O)C(C)=C(N)C3=O)N1C[C@@H]1N[C@@H]12 [Mitomycin C] (1000 nM),93%,84.2%,97.9%,94.1%,102%,–
CCNC(=O)c1noc(-c2cc(C(C)C)c(O)cc2O)c1-c1ccc(CN2CCOCC2)cc1 [NVP-AUY922] (100 nM),15.2%,71%,32.3%,47.5%,39.1%,–
CC1(C)CCC(c2ccc(Cl)cc2)=C(CN2CCN(c3ccc(C(=O)NS(=O)(=O)c4ccc(N[C@H](CCN5CCOCC5)CSc5ccccc5)c(S(=O)(=O)C(F)(F)F)c4)cc3)CC2)C1 [Navitoclax] (1000 nM),97.8%,97.3%,80.9%,67.8%,93.1%,–
Cc1cn(-c2cc(NC(=O)c3ccc(C)c(Nc4nccc(-c5cccnc5)n4)c3)cc(C(F)(F)F)c2)cn1 [Nilotinib] (1000 nM),107%,105%,105%,100%,105%,–
O=C(CCCCCCC(=O)Nc1ccccc1)NO [Vorinostat] (1000 nM),104%,98.9%,61.2%,85.9%,95.8%,–
